Reference: patent publication US20260015344A1, “PAN-KRAS INHIBITORS” (Mirati Therapeutics, Inc., priority 2022, published 2026)

Assays:
KRas^G12D = biological target: T1, KRas^G12D (Homo sapiens, UniProt P01116, G12D); test: KRas Binding Assay (TR-FRET displacement), KRas G12D; settings: TR-FRET tracer displacement
T1 construct: corresponding to amino acids 1-169, produced at Accelegan Inc; biotin (biotinylated); purchased Accelegan Inc
Experimental: (§1) This Example illustrates that exemplary compounds of the present invention bind to KRas and are capable of displacing a labeled tracer ligand occupying the KRas binding site. KRas^WT, KRas^G12A, KRas^G12C, KRas^G12D, KRas^G12R, KRas^G12S, KRas^G12V, KRas^G13D, or KRas^Q61H was used in the assay.
(§2) The ability of a compound to bind to KRas was measured using a TR-FRET displacement assay. Biotinylated KRas (corresponding to amino acids 1-169, produced at Accelegan Inc.) was incubated with custom made Cy5 labelled tracer, terbium streptavidin (Cisbio Inc.) and compound (1% DMSO final) in buffer (50 mM HEPES, pH 7.5, 5 mM MgCl2, 0.005% Tween-20 and 1 mM DTT). After a 60-minute incubation at room temperature, the reaction was measured using a BMG LABTECH CLARIO star Plus via TR-FRET. […] The POC values were fit to a 4-parameter IC50 equation and the IC50 value reported.

KRas^G12V = biological target: T2, KRas^G12V (Homo sapiens, UniProt P01116, G12V); test: KRas Binding Assay (TR-FRET displacement), KRas G12V; settings: TR-FRET tracer displacement
T2 construct: corresponding to amino acids 1-169, produced at Accelegan Inc; biotin (biotinylated); purchased Accelegan Inc
Experimental: as §1, §2

KRas^G12R = biological target: T3, KRas^G12R (Homo sapiens, UniProt P01116, G12R); test: KRas Binding Assay (TR-FRET displacement), KRas G12R; settings: TR-FRET tracer displacement
T3 construct: corresponding to amino acids 1-169, produced at Accelegan Inc; biotin (biotinylated); purchased Accelegan Inc
Experimental: as §1, §2

KRas^WT = biological target: T4, KRas^WT (Homo sapiens, UniProt P01116); test: KRas Binding Assay (TR-FRET displacement), KRas WT; settings: TR-FRET tracer displacement
T4 construct: corresponding to amino acids 1-169, produced at Accelegan Inc; biotin (biotinylated); purchased Accelegan Inc
Experimental: as §1, §2

KRas^G13D = biological target: T5, KRas^G13D (Homo sapiens, UniProt P01116, G13D); test: KRas Binding Assay (TR-FRET displacement), KRas G13D; settings: TR-FRET tracer displacement
T5 construct: corresponding to amino acids 1-169, produced at Accelegan Inc; biotin (biotinylated); purchased Accelegan Inc
Experimental: as §1, §2

KRas^Q61H = biological target: T6, KRas^Q61H (Homo sapiens, UniProt P01116, Q61H); test: KRas Binding Assay (TR-FRET displacement), KRas Q61H; settings: TR-FRET tracer displacement
T6 construct: corresponding to amino acids 1-169, produced at Accelegan Inc; biotin (biotinylated); purchased Accelegan Inc
Experimental: as §1, §2

KRas^G12A = biological target: T7, KRas^G12A (Homo sapiens, UniProt P01116, G12A); test: KRas Binding Assay (TR-FRET displacement), KRas G12A; settings: TR-FRET tracer displacement
T7 construct: corresponding to amino acids 1-169, produced at Accelegan Inc; biotin (biotinylated); purchased Accelegan Inc
Experimental: as §1, §2

KRas^G12C = biological target: T8, KRas^G12C (Homo sapiens, UniProt P01116, G12C); test: KRas Binding Assay (TR-FRET displacement), KRas G12C; settings: TR-FRET tracer displacement
T8 construct: corresponding to amino acids 1-169, produced at Accelegan Inc; biotin (biotinylated); purchased Accelegan Inc
Experimental: as §1, §2

KRas^G12S = biological target: T9, KRas^G12S (Homo sapiens, UniProt P01116, G12S); test: KRas Binding Assay (TR-FRET displacement), KRas G12S; settings: TR-FRET tracer displacement
T9 construct: corresponding to amino acids 1-169, produced at Accelegan Inc; biotin (biotinylated); purchased Accelegan Inc
Experimental: as §1, §2

[1] = system: KRas-mediated Phosphorylation of ERK in AsPC-1 cells; test: HTRF pERK assay, AsPC-1 cells; assay type: cell-based; settings: Homo sapiens, ASPC1, 3 hrs compound incubation, read-out: Inhibition (HTRF IC50 nM) of KRas-mediated Phosphorylation of ERK, AsPC-1
Experimental: (§3) • Day 1: Seed 6,000 cells/well-25 μl/well in 384-well white solid bottom plate; RPM1_10% FBS.
(§4) • 1. To harvest cells from flask using 0.05% Trypsin/EDTA solution. Add 10 mL of media to stop trypsinizing. Pipette the cells into a conical bottom 50 mL centrifuge tube and centrifuge 5 min×1000 rpm. • 2. Re-suspend the cell pellet in media, take a cell count, and then adjust the cell density using fresh media. • 3. Seed 6,000 cells into cell culture plate with 50 μL media. The • 4. Incubate cell plate overnight in a 37° C., 5% CO2 incubator.
(§5) • 1. Use Tecan to complete the compound addition. Compounds start from 10 uM top, 3-fold dilution, and 10 doses. The final DMSO concentration is 0.8%. Dispensed 0.2 uM Trametinib as Min control. • 2. Incubate cell plate for 3 hrs in the incubator. Detection with Cisbio pERK HTRF Kit • 1. Dilute 1 volume of 4× lysis buffer with 3 volumes of deionized water. Then, add 100× the blocking reagent. Keep lysis buffer on the ice. • 2. At the end of the compound treatment, flick-off the media. • 3. Add 35 μL of lysis buffer per well using a Multidrop Combi. Then place on a plate agitator shaking at 300 rpm at 4° C. for 40 mins. • 4. Make up the HTRF antibody buffer. For each assay plate, mix 50 μL of d2-conjugate antibody with 950 μL of detection buffer. Similarly, mix 50 μL of Cryptate antibody with 950 μL of detection buffer. Then mix the two diluted antibodies together. • 5. Dispense 3.4 μL the antibody buffer to wells of an empty assay plate. Seal the plate and centrifuge plate 30 sec×1000 rpm. • 6. At the end of the 4° C. lysis, centrifuge the lysate plates 3 mins×1500 rpm. • 7. Use the Bravo to transfer 13.6 μL of lysate from cell culture plate to assay plate. Then incubate assay plate for 2 hrs at room temperature. • 8. At the end of incubation, read plate on the Envision after centrifuging plate 30 sec×1000 rpm.

[2] = system: KRas-mediated Phosphorylation of ERK in H727 cells; test: HTRF pERK assay, H727 cells; assay type: cell-based; settings: Homo sapiens, NCI-H727, 3 hrs compound incubation, read-out: Inhibition (HTRF IC50 nM) of KRas-mediated Phosphorylation of ERK, H727
Experimental: as §3, §4, §5

[3] = system: KRas-mediated Phosphorylation of ERK in MKN1 cells; test: HTRF pERK assay, MKN1 cells; assay type: cell-based; settings: Homo sapiens, MKN-1, 3 hour compound incubation, read-out: Inhibition (HTRF IC50 nM) of KRas-mediated Phosphorylation of ERK, MKN1
Experimental: Cisbio HTRF Advanced pERK Assay Catalog #64AERPEH • Cells: MKN1, PSN1
as §3

[4] = system: KRas-mediated Phosphorylation of ERK in HCT116 cells; test: HTRF pERK assay, HCT116 cells; assay type: cell-based; settings: Homo sapiens, HCT-116, 3 hrs compound incubation, read-out: Inhibition (HTRF IC50 nM) of KRas-mediated Phosphorylation of ERK, HCT116
Experimental: as §3, §4
as §5, with “Similarly, mix 50 μL of Cryptate antibody with 950 μL of detection buffer. Then mix the two diluted antibodies together. • 5. Dispense 3.4 μL the antibody buffer to wells of an empty assay plate. Seal the plate and centrifuge plate 30 sec×1000 rpm. • 6. At the end of the 4° C. lysis, centrifuge the lysate plates 3 mins×1500 rpm. • 7. Use the Bravo to transfer 13.6 μL of lysate from cell culture plate to assay plate. Then incubate assay plate for 2 hrs at room temperature. • 8.” left out

[5] = system: KRas-mediated Phosphorylation of ERK in A549 cells; test: HTRF pERK assay, A549 cells; assay type: cell-based; settings: Homo sapiens, 3 hrs compound incubation, read-out: Inhibition (HTRF IC50 nM) of KRas-mediated Phosphorylation of ERK, A549
Experimental: as §3, §4
as §5, with “Similarly, mix 50 μL of Cryptate antibody with 950 μL of detection buffer. Then mix the two diluted antibodies together. • 5. Dispense 3.4 μL the antibody buffer to wells of an empty assay plate. Seal the plate and centrifuge plate 30 sec×1000 rpm. • 6. At the end of the 4° C. lysis, centrifuge the lysate plates 3 mins×1500 rpm. • 7. Use the Bravo to transfer 13.6 μL of lysate from cell culture plate to assay plate. Then incubate assay plate for 2 hrs at room temperature. • 8.” left out

[6] = system: KRas-mediated Phosphorylation of ERK in H460 cells; test: HTRF pERK assay, H460 cells; assay type: cell-based; settings: Homo sapiens, NCI-H460, 3 hrs compound incubation, read-out: Inhibition (HTRF IC50 nM) of KRas-mediated Phosphorylation of ERK, H460
Experimental: as §3, §4
as §5, with “Similarly, mix 50 μL of Cryptate antibody with 950 μL of detection buffer. Then mix the two diluted antibodies together. • 5. Dispense 3.4 μL the antibody buffer to wells of an empty assay plate. Seal the plate and centrifuge plate 30 sec×1000 rpm. • 6. At the end of the 4° C. lysis, centrifuge the lysate plates 3 mins×1500 rpm. • 7. Use the Bravo to transfer 13.6 μL of lysate from cell culture plate to assay plate. Then incubate assay plate for 2 hrs at room temperature. • 8.” left out

[7] = system: KRas-mediated Phosphorylation of ERK in H358 cells; test: HTRF pERK assay, H358 cells; assay type: cell-based; settings: Homo sapiens, NCI-H358, 3 hrs compound incubation, read-out: Inhibition (HTRF IC50 nM) of KRas-mediated Phosphorylation of ERK, H358
Experimental: as §3, §4
as §5, with “Similarly, mix 50 μL of Cryptate antibody with 950 μL of detection buffer. Then mix the two diluted antibodies together. • 5. Dispense 3.4 μL the antibody buffer to wells of an empty assay plate. Seal the plate and centrifuge plate 30 sec×1000 rpm. • 6. At the end of the 4° C. lysis, centrifuge the lysate plates 3 mins×1500 rpm. • 7. Use the Bravo to transfer 13.6 μL of lysate from cell culture plate to assay plate. Then incubate assay plate for 2 hrs at room temperature. • 8.” left out

[8] = system: KRas-mediated Phosphorylation of ERK in H2009 cells; test: HTRF pERK assay, H2009 cells; assay type: cell-based; settings: Homo sapiens, NCI-H2009; H2009 cells by column count (c8); may be PSN1; read-out: Inhibition (HTRF IC50 nM) of KRas-mediated Phosphorylation of ERK, H2009

T3 sequence (P01116 1-169 isoform P01116-2 G12R): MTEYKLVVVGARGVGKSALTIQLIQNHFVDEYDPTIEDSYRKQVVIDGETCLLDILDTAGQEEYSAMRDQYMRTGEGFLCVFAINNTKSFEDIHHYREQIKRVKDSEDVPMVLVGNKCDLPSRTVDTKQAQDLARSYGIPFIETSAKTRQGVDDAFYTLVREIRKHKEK
T7 sequence (P01116 1-169 isoform P01116-2 G12A): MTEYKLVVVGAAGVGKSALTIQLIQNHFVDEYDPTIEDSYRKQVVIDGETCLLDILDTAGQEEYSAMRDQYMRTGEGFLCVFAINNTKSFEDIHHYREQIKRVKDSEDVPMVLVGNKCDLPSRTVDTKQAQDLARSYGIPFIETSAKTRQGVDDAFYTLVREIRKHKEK
T6 sequence (P01116 1-169 isoform P01116-2 Q61H): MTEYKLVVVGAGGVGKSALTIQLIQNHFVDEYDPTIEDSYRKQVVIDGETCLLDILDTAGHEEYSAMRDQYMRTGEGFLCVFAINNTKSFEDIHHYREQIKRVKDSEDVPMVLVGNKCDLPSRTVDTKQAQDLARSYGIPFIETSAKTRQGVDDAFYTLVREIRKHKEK
T8 sequence (P01116 1-169 isoform P01116-2 G12C): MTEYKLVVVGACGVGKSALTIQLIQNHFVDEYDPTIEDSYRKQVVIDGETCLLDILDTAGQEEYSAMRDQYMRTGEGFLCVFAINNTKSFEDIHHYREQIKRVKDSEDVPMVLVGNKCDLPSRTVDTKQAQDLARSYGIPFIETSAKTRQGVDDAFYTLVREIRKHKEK
T2 sequence (P01116 1-169 isoform P01116-2 G12V): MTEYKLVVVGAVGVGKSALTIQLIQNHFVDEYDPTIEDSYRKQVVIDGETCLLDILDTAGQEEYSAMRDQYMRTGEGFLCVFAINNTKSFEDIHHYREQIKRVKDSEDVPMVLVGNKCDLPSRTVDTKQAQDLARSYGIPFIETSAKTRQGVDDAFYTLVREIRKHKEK
T1 sequence (P01116 1-169 isoform P01116-2 G12D): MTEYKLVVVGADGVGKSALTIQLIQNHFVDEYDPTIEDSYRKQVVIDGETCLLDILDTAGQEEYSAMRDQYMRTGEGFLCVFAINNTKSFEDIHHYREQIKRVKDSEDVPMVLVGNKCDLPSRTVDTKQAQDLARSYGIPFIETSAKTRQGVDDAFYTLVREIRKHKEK
T4 sequence (P01116 1-169 isoform P01116-2): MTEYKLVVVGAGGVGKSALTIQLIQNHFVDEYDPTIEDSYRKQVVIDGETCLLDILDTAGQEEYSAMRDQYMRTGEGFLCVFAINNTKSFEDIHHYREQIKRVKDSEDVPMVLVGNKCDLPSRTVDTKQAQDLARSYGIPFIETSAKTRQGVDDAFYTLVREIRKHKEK
T5 sequence (P01116 1-169 isoform P01116-2 G13D): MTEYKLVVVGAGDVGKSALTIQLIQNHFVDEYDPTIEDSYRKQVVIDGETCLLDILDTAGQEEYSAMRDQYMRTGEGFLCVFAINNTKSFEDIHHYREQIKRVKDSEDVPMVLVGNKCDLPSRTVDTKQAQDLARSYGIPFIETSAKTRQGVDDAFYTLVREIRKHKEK
T9 sequence (P01116 1-169 isoform P01116-2 G12S): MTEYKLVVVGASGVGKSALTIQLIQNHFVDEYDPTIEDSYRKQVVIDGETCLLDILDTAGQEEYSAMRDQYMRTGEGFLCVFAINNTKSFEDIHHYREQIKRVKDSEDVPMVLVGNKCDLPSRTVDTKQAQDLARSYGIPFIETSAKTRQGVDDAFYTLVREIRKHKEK

Compound | IC50 (KRas^G12D) | IC50 (KRas^G12V) | IC50 (KRas^G12R) | IC50 (KRas^WT) | IC50 (KRas^G13D) | IC50 (KRas^Q61H) | IC50 (KRas^G12A) | IC50 (KRas^G12C) | IC50 (KRas^G12S) | IC50 [1] | IC50 [2] | IC50 [3] | IC50 [4] | IC50 [5] | IC50 [6] | IC50 [7] | IC50 [8]
C[C@H](Oc1nc(-c2cc(C3(C)CCCc4sc(N)c(C#N)c43)sn2)cc(N2CCCC3(CNS(=O)(=O)N3)C2)n1)[C@@H]1CCCN1C (stereo partly drawn) [Example 10, 2-amino-4-(3-(6-(2,2-dioxido-2-thia-1,3,7-triazaspiro[4.5]decan-7-yl)-2-((S)-1-((S)-1-methylpyrrolidin-2-yl)ethoxy)pyrimidin-4-yl)isothiazol-5-yl)-4-methyl-4,5,6,7-tetrahydrobenzo[b]thiophene-3-carbonitrile] | 3 nM | 4 nM | < 2 nM | 31 nM | 24 nM | 9 nM | 35 nM | 15 nM | 25 nM | 898 nM | 3900 nM | 10 nM | 962 nM | 727 nM | 288 nM | 216 nM | 9300 nM
C[C@H](Oc1nc(-c2noc(C3(C)CCCc4sc(N)c(C#N)c43)n2)cc(N2C[C@H]3CC[C@@H](C2)N3)n1)[C@@H]1CCCN1C (stereo partly drawn) [Example 3, 4-(3-(6-((1R,5S)-3,8-diazabicyclo[3.2.1]octan-3-yl)-2-((S)-1-((S)-1-methylpyrrolidin-2-yl)ethoxy)pyrimidin-4-yl)-1,2,4-oxadiazol-5-yl)-2-amino-4-methyl-4,5,6,7-tetrahydrobenzo[b]thiophene-3-carbonitrile] | 18 nM | 767 nM | 728 nM | 195 nM | 315 nM | 656 nM | 879 nM | 1060 nM | 912 nM | 5940 nM | > 10000 nM | > 10000 nM | – | – | – | – | > 10000 nM
C[C@H](Oc1nc(-c2noc(C3(C)CCCc4sc(N)c(C#N)c43)n2)cc(N2CCOCC(C)(O)C2)n1)[C@@H]1CCCN1C (stereo partly drawn) [Example 13, 2-amino-4-(3-(6-(6-hydroxy-6-methyl-1,4-oxazepan-4-yl)-2-((S)-1-((S)-1-methylpyrrolidin-2-yl)ethoxy)pyrimidin-4-yl)-1,2,4-oxadiazol-5-yl)-4-methyl-4,5,6,7-tetrahydrobenzo[b]thiophene-3-carbonitrile] | 11 nM | 6 nM | 4 nM | – | – | – | – | – | – | 507 nM | 469 nM | 44 nM | 899 nM | 689 nM | 394 nM | 43 nM | > 10000 nM
C[C@H](Oc1nc(-c2noc(C3(C)CCCc4sc(N)c(C#N)c43)n2)cc(N2CCC[C@@](C)(O)C2)n1)[C@@H]1CCCN1C (stereo partly drawn) [Example 1, 2-amino-4-(3-(6-((R)-3-hydroxy-3-methylpiperidin-1-yl)-2-((S)-1-((S)-1-methylpyrrolidin-2-yl)ethoxy)pyrimidin-4-yl)-1,2,4-oxadiazol-5-yl)-4-methyl-4,5,6,7-tetrahydrobenzo[b]thiophene-3-carbonitrile] | 42 nM | 43 nM | 28 nM | 22 nM | 74 nM | 117 nM | 82 nM | 106 nM | 90 nM | 3740 nM | 6440 nM | 593 nM | – | – | – | – | > 10000 nM
